Assay results as given in paper PMC6130618, “Bioactivity-guided isolation of anti-proliferative compounds from endemic Centaurea kilaea” (Pharmaceutical Biology, 2016).
Converted amounts (≈) assume the structure as drawn. Like-named read-outs stand apart in the source and are kept apart here.

Experiments:
[1] = system: MCF-7 (breast adenocarcinoma); experiment: MTT anti-proliferative assay, MCF-7; assay type: cell-based; conditions: Homo sapiens, MCF7; MCF-7, MTT, 48 h, 0.5–50 μg/mL, mean ± SD; read-out: Cytotoxic activity IC50, MCF-7
Protocol: (§1) Anti-proliferative activity of compounds (0.5–50 μg/mL) against three human cancer cell lines were carried out by MTT test as specified in our previous study (Sen et al. [2015]). Compounds were tested for their cytotoxic activities. Cell viability and cytotoxic activity profile of the compounds were analyzed using the MTT assay (Mosman 1983; Woerdenbag et al. [1986]; Beekman et al. [1997]). MTT is cleaved to formazan by the ‘succinate-tetrazolium reductase’ system (EC 1.3.99.1) which belongs to the mitochondrial respiratory chain and is active only in viable cells. Different cell lines were used for the determination of cytotoxic activity [HeLa; (ATCC®, CCL- 2™), MCF-7 (ATCC®, HTB-22™), PC-3; (ATCC®, CRL-1435™)]. The cells were cultured with DMEM (Dulbecco’s Modified Eagle’s Medium) supplemented with 10% FBS (Foetal bovine serum), 1% L-glutamine and antibiotic solutions (penicillin–streptomycin–amphotericin).
(§2) In vitro cytotoxicity test was done by the method of modified Woerdenbag et al. ([1986]). The MTT metabolic assay was carried out with cells seeded at a density of 1 × 10^4 cells/well in 96-well flat-bottom cell culture plates with 100 μL of opti-MEM and 24–48 h incubation at 37 °C, 5% CO2. The following day, media was aspirated and the compounds were dissolved in DMSO and diluted with medium before they were added to the cell cultures at different concentrations. Cells were incubated for 48 h at 37 °C, 5% CO2. After the incubation period, 10 μL of the MTT labelling reagent [final concentration […] (Cell proliferation kit MTT, Roche, Germany)] was added to each well. The cultures were incubated for 4–12 h in a humidified atmosphere (e.g., 37 °C, 5% CO2) and 100 μL of the solubilization buffer was added into each well. The plate was allowed to stand overnight in the incubator in a humidified atmosphere (e.g., 37 °C, 5% CO2), the formazan precipitates were solubilized. Absorbance of the formazan product was measured spectrophotometrically at 550 and 690 nm.

[2] = system: Hela (cervix adenocarcinoma); experiment: MTT anti-proliferative assay, Hela; assay type: cell-based; conditions: Homo sapiens, 48 h, 0.5–50 μg/mL, mean ± SD, read-out: Cytotoxic activity IC50, Hela
Protocol: as §1, §2

[3] = MTT cytotoxicity assay, normal cell line L-929; assay type: cell-based; conditions: L-929 mouse fibroblast cells (normal cell line), L-929 normal mouse fibroblast, 0.5–50 μg/mL, mean ± SD, read-out: Cytotoxic activity IC50, L-929
Protocol: [Worded in the source for another cell line; this cell line is reported under the same test.] as §1, §2

[4] = system: PC-3 (prostate adenocarcinoma); experiment: MTT anti-proliferative assay, PC-3; assay type: cell-based; conditions: Homo sapiens; PC-3, MCF-7 excluded; PC-3, MTT, 48 h, 0.5–50 μg/mL, mean ± SD; read-out: Cytotoxic activity IC50, PC-3
Protocol: as §1, §2

[5] = system: human malignant melanoma (SK-MEL) cells; set-up: method as in Erel et al. ([2011]); conditions: ref Erel et al. ([2011]); cited from earlier work
[6] = system: human ductal carcinoma (BT-549) cells; set-up: method as in Erel et al. ([2011]); conditions: ref Erel et al. ([2011]); cited from earlier work
MCF-7 cell lines = system: MCF-7 cell lines; set-up: method as in Bruno et al. [2005]; Csapi et al. [2010]; conditions: ref Bruno et al. [2005], Csapi et al. [2010], cited from earlier work; for Activity on MCF-7 cell lines: same value converted

SMILES	IC50 [1]	IC50 [2]	IC50 at 48 h [3]	IC50 [4]	Cytotoxic effect, SK-MEL [5]	Cytotoxic effect, BT-549 [6]	Activity on MCF-7 cell lines (MCF-7 cell lines; another study)	IC50 (MCF-7 cell lines; another study)	Activity on MCF-7 cell lines (MCF-7 cell lines; previous study)	IC50 (MCF-7 cell lines; previous study)
COc1ccc(-c2cc(=O)c3c(O)c(OC)c(OC)cc3o2)cc1OC [3′-O-Methyl eupatorin]	> 50 µg/mL	> 50 µg/mL	> 50 µg/mL	> 50 µg/mL						
O=c1cc(-c2ccc(O)cc2)oc2cc(O)cc(O)c12 [Apigenin]	> 50 µg/mL	> 50 µg/mL	> 50 µg/mL	44.13 ± 0.33 µg/mL (≈ 163 µM)						
COc1cc2oc(-c3ccc(O)cc3)cc(=O)c2c(O)c1OC [Cirsimaritin]	> 50 µg/mL	> 50 µg/mL	> 50 µg/mL	4.3 ± 1.55 µg/mL (≈ 13.7 µM)						
C=C1C(=O)O[C@@H]2/C=C(\CO)CC/C=C(\C)C[C@H](OC(=O)C(=C)[C@@H](O)CO)[C@@H]12 [Cnicin]	3.25 ± 0.03 µg/mL (≈ 8.59 µM)	> 50 µg/mL	> 50 µg/mL	31.5 ± 0.71 µg/mL (≈ 83.3 µM)	cytotoxic effect	cytotoxic effect	6.37 µg/mL	16.8 µM	1.59 µg/mL	4.2 µM
C=C[C@]1(C)C[C@H](O)[C@H]2C(=C)C(=O)O[C@@H]2[C@H]1C(=C)CO [Dehydromelitensin]	28.9 ± 0.95 µg/mL (≈ 110 µM)	> 50 µg/mL	> 50 µg/mL	25 ± 0.44 µg/mL (≈ 94.6 µM)						
COc1ccc(-c2cc(=O)c3c(O)c(OC)c(OC)cc3o2)cc1O [Eupatorin]	> 50 µg/mL	> 50 µg/mL	> 50 µg/mL	35.69 ± 0.3 µg/mL (≈ 104 µM)						
COc1cc(-c2cc(=O)c3c(O)c(OC)c(O)cc3o2)ccc1O [Jaceosidin]	> 50 µg/mL	> 50 µg/mL	> 50 µg/mL	> 50 µg/mL						
CC1(C)CC[C@]2(C(=O)O)CC[C@]3(C)C(=CC[C@@H]4[C@@]5(C)CC[C@H](O)C(C)(C)[C@@H]5CC[C@]43C)[C@@H]2C1 [Oleanolic acid]	> 50 µg/mL	> 50 µg/mL	> 50 µg/mL	45.38 ± 0.42 µg/mL (≈ 99.4 µM)						
COc1ccc(-c2cc(=O)c3c(O)c(OC)c(O)cc3o2)cc1 [Pectolinarigenin]	35.5 ± 2.7 µg/mL (≈ 113 µM)	> 50 µg/mL	> 50 µg/mL	> 50 µg/mL						
COc1ccc(-c2cc(=O)c3c(O)c(OC)c(OC)cc3o2)cc1 [Salvigenin]	> 50 µg/mL	> 50 µg/mL	> 50 µg/mL	> 50 µg/mL						
C=C1CC[C@]2(C)CC[C@]3(C)[C@H](CC[C@@H]4[C@@]5(C)CC[C@H](O)C(C)(C)[C@@H]5CC[C@]43C)[C@H]2[C@@H]1C [Taraxasterol]	> 50 µg/mL	> 50 µg/mL	> 50 µg/mL	> 50 µg/mL						
